Assay results as given in US20030162759A1, “Aldosterone blocker therapy to prevent or treat inflammation-related disorders” (priority 2000, published 2003).
“And” between values parts separate entries of the source, which are not always exact repeats. Equal values may be shown once. “Also recorded” adds a separate entry of the source.

What was measured:
Type in all cases: in vivo, rat
Collagen I = test: Assay C: Collagen I mRNA in left ventricle (TaqMan); settings: for Collagen type-I message: 30 days, compared to vehicle+salt controls; for Collagen-I mRNA: individual rats
Description: (§1) The procedure of Assay B was expanded upon in a further study. […] Myocardial tissue from animals in each treatment group was examined after 7, 14, or 30 days of treatment.
(§2) Potassium chloride supplementation was added to the saline solution in order to prevent the potential hypokalemia associated with aldosterone excess.
(§3) At the time of the surgery, an Alzet 2002 osmotic minipump (Alza Corp., Palo Alto, Calif.) containing either vehicle (9% ethanol/87% propylene glycol/4% dH2O) or 1.0 mg/mL d-aldosterone (Sigma Chemical, St. Louis, Mo.) was inserted subcutaneously at the nape of the neck. Aldosterone was administered at a dose of 0.75 g/hour. […] Animals were sacrificed from each group (n=8-13) after 7, 14, or 30 days of treatment.
(§4) Following exsanguination, hearts and kidneys were isolated, removed, rinsed in cold phosphate-buffered saline, and blotted dry. Kidneys were immediately bifurcated through the long axis with a razor blade and placed in 10% neutral buffered formalin (NBF, Richard-Allen Scientific, Kalamazoo, Mich.). For the hearts, the right ventricle (RV) was cut away from the left ventricle (LV), both ventricles were weighed using a Mettler AE163 balance (Mettler-Toledo, Inc., Hightstown, N.J.), and the RV was placed in 10% NBF. A 2 mm coronal slab of the LV apex was removed and frozen with dry ice/isopentane for analysis of gene expression and the remaining portion of the LV was placed in 10% NBF for fixation. Final wet trimming was completed after 3-4 days fixation where a second 2 mm coronal slab was removed for hydroxyproline analysis and a third 2 mm slab was removed from the equatorial region for histology.
(§5) The fluorogenic 5′-nuclease assay (TaqMan PCR) using Applied Biosystems' 7700 Sequence Detection System (Applied Biosystems, Foster City, Calif.) allowed for real time detection/quantitation of a specific gene by monitoring the increase in fluorescence of a gene-specific, dye-labeled oligonucleotide probe. Probes for target and reference genes were labeled at the 5′-end with a 6-carboxyfluorescein (6FAM) reporter dye and at the 3′-end with a 6-carboxy-N,N,N′,N′-tetramethylrhodamine (TAMRA) quencher dye. When the probe was annealed to the target gene, fluorescence of 6FAM was prevented by the close proximity of TAMRA. The exonuclease activity of Taq polymerase released the dyes from the oligonucleotide probe by displacing the probe from the target sequence resulting in fluorescence excitation in direct proportion to the amount of target message present. Data analysis was performed using the Sequence Detection System software from Applied Biosystems.
(§6) Primers and probes were designed using Oligo Primer Analysis Software, Version 5.0 (National Biosciences Inc. (NBI)-Wojciech Rychlik, Cascade, Colo.). Primers were synthesized by Life Technologies (Grand Island, N.Y.) and probes were synthesized by Applied Biosystems. Primer/probe sets were designed from known sequences of rat genes to be analyzed. All target gene values were normalized to a reference gene, constitutively expressed cyclophilin. Primer/probe sets sequences can be found in Table 8
(§7) RNA was extracted from frozen (−70° C.) left ventricle (LV) tissue (approximately 10-20 mg) using 1.5 mL RNA-STAT 60 according to manufacturer's instructions (Leedo Medical Laboratories, Inc., Houston, Tex.). Briefly, tissues were homogenized using a tissue homogenizer equipped with a 5 mm probe (Ultra-Turrax T8 Homogenizer, IKA Works, Inc. Wilmington, N.C.). Following homogenization, an equal volume of molecular grade chloroform (Sigma Chemical Co., St. Louis, Mo.) was incubated with periodic mixing for 10 min at room temperature. Samples were centrifuged at 12,000 g for 10 min and RNA was precipitated from the top layer by adding an equal volume of molecular grade isopropanol (Sigma Chemical Co.) followed by an overnight incubation at −80° C.

Collagen III = test: Assay C: Collagen III mRNA in left ventricle (TaqMan); settings: for Collagen-III mRNA: individual rats; for Collagen-III mRNA, Mean: group mean
Description: as §1, §2, §3, §4, §5, §6, §7

cyclooxygenase-2 (COX-2) = test: Assay C: COX-2 relative mRNA expression in heart (TaqMan); settings: for COX-2, Mean / COX-2: mRNA; for COX-2, Mean: group mean; for COX-2: individual rats; for COX-2 mRNA expression in myocardium: time course 7, 14, 30 days, eplerenone 100 mg/kg/day
Description: as §1, §2, §3, §5
(§8) All primers and probes were designed using Primer Express software supplied with the 7700 Sequence Detection System and synthesized by Applied Biosystems. Standard curves using 5-fold dilutions of total RNA (from 200 ng to 320 pg) were performed to determine the efficiency of each primer/probe set in the TaqMan reaction prior to the analysis of the experimental samples. Primer/probe sets were designed from known sequences of rat genes to be analyzed. All target gene values were normalized to a reference gene, constitutively expressed cyclophilin. Primer/probe set sequences can be found in Table 8.
(§9) RNA was extracted from frozen (−80° C.) rat heart tissue using the Totally RNA Isolation Kit (Ambion, Inc., Austin, Tex.). Tissue was crushed using a stainless steel mortar and pestle, which had been chilled to −80° C. and transferred to a dounce homogenizer (Kontes, Vineland, N.J.) containing 3-10 mL cold denaturation buffer. Tissue was homogenized and transferred to a sterile, 15 mL polypropylene centrifuge tube. An equal volume of phenol:chloroform:isoamyl alcohol (25:24:1) was added, samples were shaken vigorously for 1 min, and incubated on ice for at least 15 min. Samples were centrifuged for 30 min at 10,000 g. The aqueous phase was removed, 1/10 volume of a sodium acetate solution (3.0 M NaOAc pH 4.5) was added, samples were shaken or inverted for 10 seconds, and acid-phenol (premixed with isoamyl alcohol):chloroform (5:1, Ambion, Inc.) was added at an volume equivalent to the starting sample volume. Samples were shaken vigorously for 1 min, followed by a 15-min incubation on ice, and centrifuged for 30 min at 10,000 g. The aqueous phase removed and placed in a clean polypropylene tube. An equal volume of isopropanol (Sigma, St. Louis, Mo.) was added and the samples were mixed and incubated overnight at −20° C. The samples were centrifuged for 30 min at 10,000 g, the supernatant was removed and the RNA pellet was resuspended in DNAse/RNAse-free water. Samples were frozen at −80° C. for at least 2 hours, thawed on wet ice, and diluted for quantitation.

osteopontin = test: Assay C: osteopontin relative mRNA expression in heart (TaqMan); settings: for Osteopontin, Mean / Osteopontin: mRNA; for Osteopontin, Mean: group mean; for Osteopontin: individual rats
Description: as §1, §2, §3, §5, §8, §9

[1] = Table 9.14, 7-day protocol, listed as Aldosterone + salt
[2] = 14 days of treatment, relative to cyclophilin expression, listed as Aldosterone + salt
[3] = 30 days of treatment, relative to cyclophilin expression, listed as Aldosterone + salt
[4] = 7 days of treatment, listed as Aldosterone + salt
[5] = 14 days of treatment, relative to cyclophilin expression, listed as Eplerenone + aldosterone + salt
[6] = 30 days of treatment, relative to cyclophilin expression, listed as Eplerenone + aldosterone + salt
[7] = mean ± SEM after 7 days of treatment, relative to cyclophilin expression
[8] = 7 days of treatment, listed as Eplerenone + aldosterone + salt
[9] = 14 days of treatment, listed as Eplerenone + aldosterone + salt
[10] = 30 days of treatment, listed as Eplerenone + aldosterone + salt

## C[C@]12CCC(=O)C=C1CC[C@@H]1[C@@H]2[C@@H](O)C[C@]2(C=O)[C@@H](C(=O)CO)CC[C@@H]12 [aldosterone]
Collagen I
  Collagen type-I message: modest increase
Collagen I; [1]
  Collagen-I mRNA: 0.84 AU and 1.40 AU
Collagen I; [2]
  Collagen-I mRNA: 0.25 AU and 1.00 AU and 1.20 AU and 1.70 AU and 0.43 AU
Collagen I; [3]
  Collagen-I mRNA: 2.20 AU
Collagen I; mean ± SEM after 14 days of treatment, relative to cyclophilin expression
  Collagen-I (collagen type I mRNA): 1.33 ± 0.24 AU
Collagen III; [1]
  Collagen-III mRNA: 0.65 AU and 1.30 AU
Collagen III; 14 days of treatment
  Collagen-III mRNA, Mean: 1.08 AU
Collagen III; 30 days of treatment
  Collagen-III mRNA, Mean: 1.39 AU
Collagen III; [2]
  Collagen-III mRNA: 0.76 AU and 1.80 AU and 0.44 AU and 1.39 AU and 0.59 AU
Collagen III; [3]
  Collagen-III mRNA: 0.75 AU and 0.58 AU and 0.72 AU
cyclooxygenase-2 (COX-2); 14 days of treatment
  COX-2, Mean: 4.34 AU
cyclooxygenase-2 (COX-2); 30 days of treatment
  COX-2, Mean: 4.53 AU
cyclooxygenase-2 (COX-2); [4]
  COX-2: 2.10 AU and 0.70 AU and 0.82 AU
cyclooxygenase-2 (COX-2); 14 days of treatment, listed as Aldosterone + salt
  COX-2: 5.80 AU and 4.18 AU
cyclooxygenase-2 (COX-2); 30 days of treatment, listed as Aldosterone + salt
  COX-2: 3.10 AU and 8.20 AU
cyclooxygenase-2 (COX-2)
  COX-2 mRNA expression in myocardium: significantly increased
osteopontin; 14 days of treatment
  Osteopontin, Mean: 6.56 AU
osteopontin; 30 days of treatment
  Osteopontin, Mean: 13.27 AU
osteopontin; [4]
  Osteopontin: 0.84 AU and 0.95 AU and 1.08 AU

## COC(=O)[C@@H]1CC2=CC(=O)CC[C@]2(C)[C@@]23O[C@@H]2C[C@@]2(C)[C@@H](CC[C@@]24CCC(=O)O4)[C@H]13 [eplerenone, Pregn-4-ene-7,21-dicarboxylic acid, 9,11-epoxy-17-hydroxy-3-oxo-, γ-lactone, methyl ester, (7α, 11α, 17β) -]
Collagen I
  Collagen type-I message: modest increase
Collagen I; group mean, 30 days of treatment
  Collagen-I mRNA, Mean: 2.53 AU
Collagen I; [5]
  Collagen-I mRNA: 0.90 AU and 1.14 AU and 0.50 AU
Collagen I; [6]
  Collagen-I mRNA: 2.98 AU and 2.90 AU
Collagen I; [7]
  Collagen-I (collagen type I mRNA): 0.85 ± 0.15 AU
Collagen III; [5]
  Collagen-III mRNA: 0.60 AU (2×) and 1.70 AU and 1.81 AU and 1.80 AU
Collagen III; [6]
  Collagen-III mRNA: 0.72 AU and 0.89 AU and 0.73 AU
Collagen III; [7]
  Collagen-III (collagen type III mRNA): 1.09 ± 0.21 AU
Collagen III; mean ± SEM after 30 days of treatment, relative to cyclophilin expression
  Collagen-III (collagen type III mRNA): 1.53 ± 0.23 AU
cyclooxygenase-2 (COX-2); 7 days of treatment
  COX-2, Mean: 1.25 AU
cyclooxygenase-2 (COX-2); 14 days of treatment
  COX-2, Mean: 2.02 AU
cyclooxygenase-2 (COX-2); 30 days of treatment
  COX-2, Mean: 2.28 AU
cyclooxygenase-2 (COX-2); [8]
  COX-2: 1.19 AU and 0.60 AU (2×) and 0.82 AU and 0.91 AU
cyclooxygenase-2 (COX-2); [9]
  COX-2: 0.70 AU and 0.99 AU and 0.86 AU
cyclooxygenase-2 (COX-2); [10]
  COX-2: 0.55 AU and 1.34 AU
cyclooxygenase-2 (COX-2)
  COX-2 mRNA expression in myocardium: inhibition of early time-course expression of myocardial COX-2; also recorded: significantly reduced
osteopontin; 7 days of treatment
  Osteopontin, Mean: 0.75 AU
osteopontin; 14 days of treatment
  Osteopontin, Mean: 2.94 AU
osteopontin; 30 days of treatment
  Osteopontin, Mean: 2.59 AU
osteopontin; [8]
  Osteopontin: 0.54 AU and 0.52 AU and 0.27 AU and 0.60 AU and 0.96 AU and 0.75 AU
osteopontin; [9]
  Osteopontin: 1.00 AU and 0.77 AU and 1.59 AU and 0.72 AU and 0.99 AU
osteopontin; [10]
  Osteopontin: 1.28 AU
osteopontin; time course 7, 14, 30 days, eplerenone 100 mg/kg/day
  Osteopontin mRNA expression in myocardium: significantly reduced; also recorded: inhibition of early time-course expression of myocardial osteopontin
